Values quoted from earlier work, collected in patent US9617270B2, “Cytotoxic benzodiazepine derivatives” (priority 2012, dated 2017).

Details: Phase I clinical evaluation

## C=C1C[C@H]2C=Nc3cc(OCCCOc4cc5c(cc4OC)C(=O)N4CC(=C)C[C@H]4C=N5)c(OC)cc3C(=O)N2C1 [SJG-136]
  adverse effects noted: vascular leak syndrome, peripheral edema, liver toxicity and fatigue
  maximum tolerated dose: 45 μg/m^2
Circulating lymphocytes
  DNA damage in circulating lymphocytes: noted at all doses
